This note sets out measurements from the supplement of paper PMC10307832.

What all share (assay): relative viability (nuclei count vs DMSO), 5 days (fraction); higher = more cells survive
Compound in assay [1]: COC1=CC=C(C=C1)CN2C=CC3=C2C=C(C=C3)C(=O)NO
The method, boiled down:
(§1)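 Viability was defined as treated-well nuclei divided by vehicle-well nuclei, with the median taken over replicate plates. Cells from lung cancer lines sat overnight at 37 °C in 1536-well plates, received five √10-spaced library-drug doses by pinning on vehicle-anchored plates, and grew 5 days without medium change before one-step fixation, permeabilisation and Hoechst staining, 4× imaging and MetaXpress nuclear counts. Only plates with control CV under 25% and at least one doubling were kept.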

Compound in the next assay: C[C@]1(c2nc3c(C(N)=O)cccc3[nH]2)CCCN1 [Veliparib]
The essentials: as §1

Compound in assay [2]: COC1=CC=C(C=C1)CN2C=CC3=C2C=C(C=C3)C(=O)NO + Cc1nc(NC(=O)N2CCC[C@H]2C(N)=O)sc1-c1ccnc(C(C)(C)C(F)(F)F)c1 [Alpelisib] (partner 2 µM)
The method, boiled down: (§2)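 For relative viability, nuclei counts in treated wells were divided by those in vehicle wells. Lung cancer cell lines had been pin-tool dosed in 1536-well plates the day after seeding and cultured for 5 days, then fixed and stained in one step (final 0.05% Triton X-100, 1% formaldehyde, 1 ug/ml Hoechst) and imaged at 4×. Doses were one drug alone or a fixed anchor-drug dose plus five library-drug doses (not always all listed) in √10 steps, and values are duplicate-plate medians.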

Compound in the assay “Veliparib + Pemetrexed”: C[C@]1(c2nc3c(C(N)=O)cccc3[nH]2)CCCN1 [Veliparib] + Nc1nc2[nH]cc(CCc3ccc(C(=O)N[C@@H](CCC(=O)O)C(=O)O)cc3)c2c(=O)[nH]1 [Pemetrexed] (partner 0.2 µM)
The method, boiled down: as §2

For the cell line NCI-H2126, the relative viability in assay [1] (0.08 µM) turned out to be 0.99; in assay [1] (0.253 µM), 1.03; in assay [1] (0.8 µM) it was 1.03; in assay [1] (2.53 µM) it was 1.02; in assay [1] (8 µM), 0.942; with Veliparib (0.02 µM), 0.986. Also, the relative viability with Veliparib (0.06325 µM) came to 0.926; in the assay with Veliparib (0.2 µM), 0.984; with Veliparib (0.6325 µM) it was 0.985; with Veliparib (2 µM) it was 0.999; in assay [2] (first compound 0.08 µM), 0.738; in assay [2] (first compound 0.253 µM), 0.798. The relative viability in assay [2] (first compound 0.8 µM) came out at 0.744; in assay [2] (first compound 2.53 µM) it was 0.804; in assay [2] (first compound 8 µM), 0.836; with Veliparib + Pemetrexed (first compound 0.02 µM) it was 0.716; with Veliparib + Pemetrexed (first compound 0.06325 µM), 0.732; with Veliparib + Pemetrexed (first compound 0.2 µM), 0.71. Further, the relative viability in the assay with Veliparib + Pemetrexed (first compound 0.6325 µM) came to 0.647; with Veliparib + Pemetrexed (first compound 2 µM) it was 0.675.
Regarding NCI-H2170, the relative viability came out at 0.973 in assay [1] (0.08 µM); 0.994 in assay [1] (0.253 µM); 0.977 in assay [1] (0.8 µM); 0.98 in assay [1] (2.53 µM); 0.906 in assay [1] (8 µM); 0.989 in the assay with Veliparib (0.02 µM). Also, the relative viability with Veliparib (0.06325 µM) was determined as 0.954; with Veliparib (0.2 µM) it was 0.967; with Veliparib (0.6325 µM), 0.96; with Veliparib (2 µM) it was 0.991; in assay [2] (first compound 0.08 µM) it was 0.714; in assay [2] (first compound 0.253 µM), 0.941. Also, the relative viability in assay [2] (first compound 0.8 µM) amounted to 0.837; in assay [2] (first compound 2.53 µM), 0.793; in assay [2] (first compound 8 µM), 0.838; with Veliparib + Pemetrexed (first compound 0.02 µM) it was 0.256; in the assay with Veliparib + Pemetrexed (first compound 0.06325 µM) it was 0.244; with Veliparib + Pemetrexed (first compound 0.2 µM), 0.253. The relative viability worked out at 0.237 in the assay with Veliparib + Pemetrexed (first compound 0.6325 µM) and 0.273 with Veliparib + Pemetrexed (first compound 2 µM).
Consider NCI-H2228, for which the relative viability was determined as 1.06 in assay [1] (0.08 µM); 1.05 in assay [1] (0.253 µM); 0.996 in assay [1] (0.8 µM); 1.07 in assay [1] (2.53 µM); 0.851 in assay [1] (8 µM); 0.909 with Veliparib (0.02 µM). Also, the relative viability was determined as 1.08 with Veliparib (0.06325 µM); 1.15 with Veliparib (0.2 µM); 0.954 with Veliparib (0.6325 µM); 0.932 in the assay with Veliparib (2 µM); 0.764 in assay [2] (first compound 0.08 µM); 0.659 in assay [2] (first compound 0.253 µM). The relative viability in assay [2] (first compound 0.8 µM) was determined as 0.773; in assay [2] (first compound 2.53 µM) it was 0.893; in assay [2] (first compound 8 µM), 0.741; with Veliparib + Pemetrexed (first compound 0.02 µM), 0.336; with Veliparib + Pemetrexed (first compound 0.06325 µM), 0.375; with Veliparib + Pemetrexed (first compound 0.2 µM), 0.398. Also, the relative viability with Veliparib + Pemetrexed (first compound 0.6325 µM) is 0.331; with Veliparib + Pemetrexed (first compound 2 µM), 0.313.
Consider NCI-H2347, for which the relative viability stood at 0.911 in assay [1] (0.08 µM); 1.06 in assay [1] (0.253 µM); 1.1 in assay [1] (0.8 µM); 1.17 in assay [1] (2.53 µM); 0.974 in assay [1] (8 µM); 1.08 with Veliparib (0.02 µM). In addition, the relative viability came to 0.936 in the assay with Veliparib (0.06325 µM); 0.94 in the assay with Veliparib (0.2 µM); 0.971 with Veliparib (0.6325 µM); 0.898 in the assay with Veliparib (2 µM); 0.763 in assay [2] (first compound 0.08 µM); 1.14 in assay [2] (first compound 0.253 µM). Besides, the relative viability in assay [2] (first compound 0.8 µM) was 1.03; in assay [2] (first compound 2.53 µM), 1.18; in assay [2] (first compound 8 µM) it was 1.01; in the assay with Veliparib + Pemetrexed (first compound 0.02 µM) it was 0.434; with Veliparib + Pemetrexed (first compound 0.06325 µM) it was 0.456; with Veliparib + Pemetrexed (first compound 0.2 µM) it was 0.425. Further, the relative viability came to 0.471 in the assay with Veliparib + Pemetrexed (first compound 0.6325 µM) and 0.445 with Veliparib + Pemetrexed (first compound 2 µM).
As for NCI-H2405, the relative viability in assay [1] (0.08 µM) is 0.908; in assay [1] (0.253 µM), 0.934; in assay [1] (0.8 µM) it was 1; in assay [1] (2.53 µM), 1.06; in assay [1] (8 µM), 0.913; with Veliparib (0.02 µM), 0.973. For the same cell line, the relative viability with Veliparib (0.06325 µM) turned out to be 0.89; in the assay with Veliparib (0.2 µM), 1.01; with Veliparib (0.6325 µM), 1; with Veliparib (2 µM), 0.691; in assay [2] (first compound 0.08 µM), 0.474; in assay [2] (first compound 0.253 µM), 0.784. The relative viability was 0.804 in assay [2] (first compound 0.8 µM); 0.797 in assay [2] (first compound 2.53 µM); 0.675 in assay [2] (first compound 8 µM); 1.08 in the assay with Veliparib + Pemetrexed (first compound 0.02 µM); 1.11 with Veliparib + Pemetrexed (first compound 0.2 µM); 0.978 with Veliparib + Pemetrexed (first compound 0.6325 µM). For the same cell line, in the assay with Veliparib + Pemetrexed (first compound 2 µM), the relative viability came to 1.04.
On to NCI-H3122, for which the relative viability in assay [1] (0.08 µM) turned out to be 0.971; in assay [1] (0.253 µM) it was 0.984; in assay [1] (0.8 µM), 0.954; in assay [1] (2.53 µM) it was 0.989; in assay [1] (8 µM), 0.955; in the assay with Veliparib (0.02 µM), 1. The relative viability was 1.01 in the assay with Veliparib (0.06325 µM); 0.974 with Veliparib (0.2 µM); 0.957 with Veliparib (0.6325 µM); 1 in the assay with Veliparib (2 µM); 0.613 in assay [2] (first compound 0.08 µM); 0.88 in assay [2] (first compound 0.253 µM). Besides, the relative viability is 0.828 in assay [2] (first compound 0.8 µM); 0.87 in assay [2] (first compound 2.53 µM); 0.701 in assay [2] (first compound 8 µM); 0.194 with Veliparib + Pemetrexed (first compound 0.02 µM); 0.203 with Veliparib + Pemetrexed (first compound 0.06325 µM); 0.19 with Veliparib + Pemetrexed (first compound 0.2 µM). The relative viability with Veliparib + Pemetrexed (first compound 0.6325 µM) was determined as 0.211; with Veliparib + Pemetrexed (first compound 2 µM), 0.2.
